# Results: article PMC12022903, “Evaluation of drug-drug interaction between Suraxavir Marboxil (GP681) and itraconazole, and assessment of the impact of gene polymorphism” (Frontiers in Pharmacology, 2025)
# Several values for one entry are separate records, joined by “and”; a condition that tells them apart may be missing. Equal values may be shown once. Read-outs that look alike come from different tables or passages of the source.
# How the values were obtained:
# [1] = for GP1707D07 concentration: Period 1 GP681 monotherapy, individual subjects; for GP1707D07 concentration, Geo Mean / GP1707D07 concentration, Mean: plasma; for GP1707D07 concentration, Geo Mean: Geo Mean of subjects 301-312, Period 2 GP681-itraconazole co-administration; for GP1707D07 concentration, Mean: Mean of subjects 301-312, Period 2 GP681-itraconazole co-administration
# [2] = system: avian influenza virus strains; conditions: ref unpublished data; cited from earlier work
# [3] = parameters: method as in unpublished data; conditions: preclinical studies; ref unpublished data; cited from earlier work
# cytochrome P450 (CYP) = system: cytochrome P450 (CYP); parameters: method as in unpublished data; conditions: preclinical studies; ref unpublished data; cited from earlier work
# liver enzymes = system: liver enzymes; parameters: method as in unpublished data; conditions: preclinical studies; ref unpublished data; cited from earlier work
# MDR1 = system: MDR1; parameters: method as in unpublished data; conditions: preclinical studies; ref unpublished data; cited from earlier work
# OATP1B1 = system: OATP1B1; parameters: method as in unpublished data; conditions: preclinical studies; ref unpublished data; cited from earlier work
# OATP1B3 = system: OATP1B3; parameters: method as in unpublished data; conditions: preclinical studies; ref unpublished data; cited from earlier work
# OAT1 = system: OAT1; parameters: method as in unpublished data; conditions: preclinical studies; ref unpublished data; cited from earlier work
# influenza virus = system: influenza virus; parameters: method as in preclinical studies; conditions: ref preclinical studies; cited from earlier work
structure (smiles),measurement,setting,value
O=C1c2c(O)c(=O)ccn2N([C@@H]2c3ccccc3SCc3c2ccc(F)c3F)[C@@H]2COC3(CC3)CN12 [GP1707D07],time from which GP1707D07 concentrations exceed the clinical effective concentration,"[1]; GP681 20 mg + itraconazole, post-dose, threshold 6.87 ng/mL",1 h
same,GP1707D07 concentration,[1]; 0.5h,17.9 ng/mL and 0.6 ng/mL and 10.8 ng/mL and 2.8 ng/mL and 8.3 ng/mL and 1.4 ng/mL
same,GP1707D07 concentration,[1]; 1h,23.5 ng/mL and 1.8 ng/mL and 16.5 ng/mL and 6.2 ng/mL and 10.1 ng/mL and 5.6 ng/mL
same,GP1707D07 concentration,[1]; 2h,33.1 ng/mL and 4.5 ng/mL and 26.9 ng/mL and 7.2 ng/mL and 12.6 ng/mL and 9.4 ng/mL
same,GP1707D07 concentration,[1]; 3h,44.4 ng/mL and 11.9 ng/mL and 25.1 ng/mL and 6.4 ng/mL and 14.2 ng/mL and 10.4 ng/mL
same,GP1707D07 concentration,[1]; 4h,36.1 ng/mL and 13.4 ng/mL and 24.0 ng/mL and 5.7 ng/mL and 15.4 ng/mL and 11.0 ng/mL
same,GP1707D07 concentration,[1]; 5h,30.8 ng/mL and 14.9 ng/mL and 20.4 ng/mL and 7.0 ng/mL and 15.5 ng/mL and 12.0 ng/mL
same,GP1707D07 concentration,[1]; 6h,30.7 ng/mL and 18.0 ng/mL and 19.4 ng/mL and 7.0 ng/mL and 15.2 ng/mL and 11.0 ng/mL
same,GP1707D07 concentration,[1]; 8h,24.5 ng/mL and 14.2 ng/mL and 17.9 ng/mL and 6.9 ng/mL and 13.5 ng/mL and 9.5 ng/mL
same,GP1707D07 concentration,[1]; 12h,21.5 ng/mL and 12.6 ng/mL and 14.5 ng/mL and 6.6 ng/mL and 11.1 ng/mL and 8.8 ng/mL and 20.0 ng/mL
same,GP1707D07 concentration,[1]; 24h,17.5 ng/mL and 10.3 ng/mL and 12.6 ng/mL and 5.4 ng/mL and 10.1 ng/mL and 6.3 ng/mL and 14.7 ng/mL
same,GP1707D07 concentration,[1]; 36h,14.8 ng/mL and 8.1 ng/mL and 10.5 ng/mL and 4.4 ng/mL and 8.8 ng/mL and 5.4 ng/mL and 11.8 ng/mL
same,GP1707D07 concentration,[1]; 48h,12.3 ng/mL and 6.9 ng/mL and 7.4 ng/mL and 3.9 ng/mL and 6.7 ng/mL and 5.1 ng/mL and 9.0 ng/mL
same,GP1707D07 concentration,[1]; 72h,7.8 ng/mL and 5.1 ng/mL and 4.9 ng/mL and 3.2 ng/mL and 6.0 ng/mL and 3.6 ng/mL and 7.6 ng/mL
same,GP1707D07 concentration,[1]; 120h,4.8 ng/mL and 3.5 ng/mL and 3.2 ng/mL and 1.7 ng/mL and 4.0 ng/mL and 2.1 ng/mL and 3.6 ng/mL
same,GP1707D07 concentration,[1]; 168h,2.4 ng/mL and 2.0 ng/mL and 1.9 ng/mL and 1.1 ng/mL and 2.2 ng/mL and 1.3 ng/mL
same,GP1707D07 concentration,[1]; 264h,1.3 ng/mL and 1.0 ng/mL and 0.8 ng/mL and 0.7 ng/mL
same,"GP1707D07 concentration, Geo Mean","[1]; D26, 0.5h",4.4 ng/mL
same,"GP1707D07 concentration, Geo Mean","[1]; D26, 1h",8.5 ng/mL
same,"GP1707D07 concentration, Geo Mean","[1]; D26, 2h",15.2 ng/mL
same,"GP1707D07 concentration, Geo Mean","[1]; D26, 3h",17.9 ng/mL
same,"GP1707D07 concentration, Geo Mean","[1]; D26, 4h",19.7 ng/mL
same,"GP1707D07 concentration, Geo Mean","[1]; D26, 5h",20.9 ng/mL
same,"GP1707D07 concentration, Geo Mean","[1]; D26, 6h",20.4 ng/mL
same,"GP1707D07 concentration, Geo Mean","[1]; D26, 8h",19.0 ng/mL
same,"GP1707D07 concentration, Geo Mean","[1]; D26, 12h",16.7 ng/mL
same,"GP1707D07 concentration, Geo Mean","[1]; D26, 24h",14.9 ng/mL
same,"GP1707D07 concentration, Geo Mean","[1]; D26, 36h",13.5 ng/mL
same,"GP1707D07 concentration, Geo Mean","[1]; D26, 48h",12.1 ng/mL
same,"GP1707D07 concentration, Geo Mean","[1]; D26, 72h",9.6 ng/mL
same,"GP1707D07 concentration, Geo Mean","[1]; D26, 120h",6.8 ng/mL
same,"GP1707D07 concentration, Geo Mean","[1]; D26, 168h",5.1 ng/mL
same,"GP1707D07 concentration, Geo Mean","[1]; D26, 264h",3.2 ng/mL
same,"GP1707D07 concentration, Mean","[1]; D26, 0h",0.0 ng/mL
same,"GP1707D07 concentration, Mean","[1]; D26, 0.5h",6.4 ng/mL
same,"GP1707D07 concentration, Mean","[1]; D26, 1h",10.4 ng/mL
same,"GP1707D07 concentration, Mean","[1]; D26, 2h",17.0 ng/mL
same,"GP1707D07 concentration, Mean","[1]; D26, 3h",19.7 ng/mL
same,"GP1707D07 concentration, Mean","[1]; D26, 4h",21.3 ng/mL
same,"GP1707D07 concentration, Mean","[1]; D26, 5h",22.0 ng/mL
same,"GP1707D07 concentration, Mean","[1]; D26, 6h",21.6 ng/mL
same,"GP1707D07 concentration, Mean","[1]; D26, 8h",20.0 ng/mL
same,"GP1707D07 concentration, Mean","[1]; D26, 12h",17.6 ng/mL
same,"GP1707D07 concentration, Mean","[1]; D26, 24h",15.6 ng/mL
same,"GP1707D07 concentration, Mean","[1]; D26, 36h",14.2 ng/mL
same,"GP1707D07 concentration, Mean","[1]; D26, 48h",12.5 ng/mL
same,"GP1707D07 concentration, Mean","[1]; D26, 72h",10.1 ng/mL
same,"GP1707D07 concentration, Mean","[1]; D26, 120h",7.1 ng/mL
same,"GP1707D07 concentration, Mean","[1]; D26, 168h",5.4 ng/mL
same,"GP1707D07 concentration, Mean","[1]; D26, 264h",3.3 ng/mL
same,average ratio of GP1707D07 concentration at each time point (Period 2: Period 1),[1]; within 24 h post-dose,1.7–2.0
same,in vitro antiviral activity (average EC50 and EC90) compared with baloxavir,[2],better in vitro antiviral activity
same,in vitro inhibitory activity against avian influenza virus strains,[2],inhibitory activity against all tested avian influenza virus strains
same,route of excretion,[3],mainly excreted in feces
same,tissue distribution,[3],widely distributed across various tissues
same,metabolizing enzymes,cytochrome P450 (CYP),"mainly metabolized by cytochrome P450 (CYP) 1A2, CYP 2C8, and CYP 3A4"
same,inhibition or induction of liver enzymes,liver enzymes,do not significantly inhibit or induce liver enzymes
same,inhibition of transport activity of MDR1,MDR1,nor do they inhibit the transport activity
same,inhibition of transport activity of OATP1B1,OATP1B1,nor do they inhibit the transport activity
same,inhibition of transport activity of OATP1B3,OATP1B3,nor do they inhibit the transport activity
same,inhibition of transport activity of OAT1,OAT1,nor do they inhibit the transport activity
same,estimated clinically effective concentration (antiviral threshold),influenza virus,6.87 ng/mL
